The target in data set [1] is T1, cruzain (Trypanosoma cruzi, UniProt P25779). Description: Cruzain inhibition, fluorogenic substrate Cbz-Phe-Arg-AMC time courses. Format: biochemical.
Data set [2] relates to T. cruzi-infected cardiomyoblasts. Description: T. cruzi-infected C2C12 murine cardiomyoblast assay. Particulars: Trypanosoma cruzi, C2C12, in Mus musculus, 48 h, read-out: T. cruzi-infected cardiomyoblasts EC50, C2C12 cells, T. cruzi Ca-I/72, 2 days, 0.02–40 μM. Format: cell-based.
Data set [3] deals with C2C12 murine cardiomyoblast cells. Description: Toxicity against host cardiomyoblasts in the T. cruzi infection assay. Format: cell-based. Particulars: at up to 40 μM.
In data set [4] the target is T1, cruzain. Nature of the data set: biochemical. The note with it: read-out: Residence time τ=1/kobs.
The test system of data set [5] is T. b. brucei BSFs. The note with it: read-out: EC50 in T. b. brucei BSFs; cited from earlier work.
In data set [6] the test system is T. b. brucei BSFs. Description: Axenic cultures of T. b. brucei bloodstream forms, growth inhibition. The note with it: Trypanosoma brucei, read-out: T. b. brucei BSFs EC50.
Data set [7] can be described thus: Stability of prodrugs in buffer without esterase. Particulars: buffer pH 7.5, over 3 h. In kind it is physicochemical.
For the next data set, the target named is human cathepsin L (Homo sapiens, UniProt P07711). Description: Human cathepsin L inhibition. In kind it is biochemical.
human cathepsin L, sequence (P07711 114-333): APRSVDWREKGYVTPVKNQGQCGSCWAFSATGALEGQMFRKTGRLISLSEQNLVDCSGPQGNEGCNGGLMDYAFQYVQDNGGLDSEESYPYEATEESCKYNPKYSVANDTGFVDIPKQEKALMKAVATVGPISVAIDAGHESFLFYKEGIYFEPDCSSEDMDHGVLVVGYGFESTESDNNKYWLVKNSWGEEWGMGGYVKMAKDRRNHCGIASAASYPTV
The nature of data set [8]: Pharmacokinetic evaluation in mice by intravenous administration. In kind it is in vivo. Particulars: data not shown.
Data set [9] is described as follows: Detection of aldehyde content using phenylhydrazine. Particulars: 0.2 mM compound, 1 mM phenylhydrazine; for Reaction with excess phenylhydrazine (in words): 2 h; for kobs of phenylhydrazone formation: Abs 282 nm, pH 7.5 buffer lacking DTT. Format: physicochemical.

Structures are written as SMILES. Where two headings read alike, the source gives them in different places. Residues, ends and D or L forms follow the SMILES beside them. *: point of attachment. Cbz = O=C(OCc1ccccc1)*

T1 sequence (P25779 123-337 limits assumed): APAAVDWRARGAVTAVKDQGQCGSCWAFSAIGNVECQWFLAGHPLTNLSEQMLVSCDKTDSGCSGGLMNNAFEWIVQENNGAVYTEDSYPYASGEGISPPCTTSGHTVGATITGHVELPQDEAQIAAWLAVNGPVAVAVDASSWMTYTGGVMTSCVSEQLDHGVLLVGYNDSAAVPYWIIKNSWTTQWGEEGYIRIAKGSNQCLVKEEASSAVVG

Turning to `CCOC1Oc2ccccc2C[C@@H]1NC(=O)[C@H](Cc1ccccc1)NC(=O)N1CCN(C)CC1` (stereo partly drawn) [Compound 16, N-((2S)-1-(((3S)-2-ethoxychroman-3-yl)amino)-1-oxo-3-phenylpropan-2-yl)-4-methylpiperazine-1-carboxamide], on cruzain [1], the “Cruzain inhibition by prodrugs (in words)” value is listed as “did not inhibit cruzain”.

As to `O=C[C@H](Cc1ccccc1)NC(=O)[C@H](Cc1ccccc1)NC(=O)OCc1ccccc1` [Compound 1, Cbz-Phe-Phe-H] (Cbz-Phe-Phe-aldehyde), in data set [2], the EC50 came to 0.4 µM. Besides, the “Toxicity against the host cardiomyoblasts” value in [3] was “significant cytotoxicity”. The residence time at cruzain [4] turned out to be 52 min. For the same compound, the “k4, rate constant for conversion of EI* back to EI” value at cruzain [1] (from replot of kobs vs [I], eq 3) is listed as “(7.6±0.6)×10^–4 s^–1”.

Take `COc1ccc2c(c1)C[C@H](NC(=O)[C@H](Cc1ccccc1)NC(=O)OCc1ccccc1)C(O)O2` (some centres unmarked) [Compound 6]: the residence time at cruzain [4] lay in the range of 2.5 to 5.5 min. Moreover, on cruzain [1], the “Fold lower activity than 7” value is on record as “over 3 fold” and the “Fold more weakly binding than un-substituted SMAI 2” value amounted to 7 fold.

For `N=C(N)c1ccc(/N=N/Nc2ccc(C(=N)N)cc2)cc1` [diminazene], in the data set on T. b. brucei BSFs [5], the EC50 was 0.99 µM.

`CN1CCN(C(=O)N[C@@H](Cc2ccccc2)C(=O)N[C@H](/C=C/S(=O)(=O)c2ccccc2)CCc2ccccc2)CC1` [K777, reference compound]: in data set [3], the “Toxicity against the host cardiomyoblasts” value is “significant cytotoxicity”. In the data set on T. b. brucei BSFs [6], the EC50 worked out at 0.09 ± 0.06 µM.

As for `COc1ccccc1C[C@@H](C=O)NC(=O)[C@H](Cc1ccccc1)NCC(=O)OCc1ccccc1` [Compound 5], at cruzain [1], the “Fold less active than aldehyde 1 versus cruzain” value is recorded as 50 fold.

With `CC(=O)OC1Oc2ccccc2C[C@@H]1NC(=O)[C@H](Cc1ccccc1)NC(=O)N1CCN(C)CC1` (stereo partly drawn) [Compound 13, (3S)-3-((S)-2-(4-methylpiperazine-1-carboxamido)-3-phenylpropanamido)chroman-2-yl acetate], the “Degradation in buffer without esterase” value in data set [7] is “about 10%”.

As for `Cc1ccc2c(c1)C[C@H](NC(=O)[C@H](Cc1ccccc1)NC(=O)OCc1ccccc1)C(O)O2` (stereo partly drawn) [Compound 7, Benzyl ((2S)-1-(((3S)-2-hydroxy-6-methylchroman-3-yl)amino)-1-oxo-3-phenylpropan-2-yl)carbamate], the residence time on cruzain [4] fell in the range of 2.5 to 5.5 min.

In the case of `O=C(N[C@@H](Cc1ccccc1)C(=O)N[C@H]1Cc2cc(F)ccc2OC1O)OCc1ccccc1` (some centres unmarked) [Compound 9], the residence time at cruzain [4] fell in the range of 2.5 to 5.5 min.

With `CC(C)OC1Oc2ccccc2C[C@@H]1NC(=O)[C@H](Cc1ccccc1)NC(=O)N1CCN(C)CC1` (some centres unmarked) [Compound 17], the “Cruzain inhibition by prodrugs (in words)” value on cruzain [1] is listed as “did not inhibit cruzain”.

As to `CC(C)[C@H](NC(=O)OCc1ccccc1)C(=O)N[C@@H](CC1CCCCC1)C(=O)N[C@H](C=O)Cc1ccc[nH]c1=O` [Compound 18], the “Inhibition of human cathepsin L (in words)” value at human cathepsin L is recorded as “inhibited human cathepsin L”.

Take `CN1CCN(C(=O)N[C@@H](Cc2ccccc2)C(=O)N[C@@H]2Cc3ccccc3C[C@H]2O)CC1` (mixture of isomers) [Compound 3, N-((S)-1-(((2S,3S)-3-hydroxy-1,2,3,4-tetrahydronaphthalen-2-yl)amino)-1-oxo-3-phenylpropan-2-yl)-4-methylpiperazine-1-carboxamide and N-((S)-1-(((2R,3R)-3-hydroxy-1,2,3,4-tetrahydronaphthalen-2-yl)amino)-1-oxo-3-phenylpropan-2-yl)-4-methylpiperazine-1-carboxamide]: the “Cruzain inhibition (in words)” value at cruzain [1] (at ≤100 μM) is “did not inhibit cruzain”.

As to `O=C(N[C@@H](Cc1ccccc1)C(=O)N[C@H]1Cc2cc(Cl)ccc2OC1O)OCc1ccccc1` (some centres unmarked) [Compound 8], the residence time at cruzain [4] lay within 2.5 to 5.5 min.

`O=C(N[C@@H](Cc1ccccc1)C(=O)N[C@H]1Cc2ccccc2OC1O)OCc1ccccc1` (stereo partly drawn) [Compound 2, Cbz-Phe-o-Tyr-H]: the residence time at cruzain [4] fell in the range of 2.5 to 5.5 min. For the same compound, the “Ratio Ki*(SMAI)/Ki*(free aldehyde counterpart)” value at cruzain [1] (Ki*(12)/Ki*(11), Ki*(2)/Ki*(1)) amounted to 110.

With `CN1CCN(C(=O)N[C@@H](Cc2ccccc2)C(=O)N[C@H]2Cc3ccccc3OC2O)CC1` (some centres unmarked) [Compound 12], the “Half-life in mice (in words)” value in data set [8] was “short half-life”. In [9], the “Reaction with excess phenylhydrazine (in words)” value is recorded as “remained intact after 2 h” and the “kobs of phenylhydrazone formation” value is on record as “negligible”. Besides, on cruzain [4], the residence time was determined as 26 min.

Take `COC(=O)c1ccc2c(c1)C[C@H](NC(=O)[C@H](Cc1ccccc1)NC(=O)OCc1ccccc1)C(O)O2` (some centres unmarked) [Compound 10]: the residence time at cruzain [4] fell in the range of 2.5 to 5.5 min. At cruzain [1], the “Fold increase in potency versus 2” value was 3 fold.

Consider `CN1CCN(C(=O)N[C@@H](Cc2ccccc2)C(=O)N[C@H](C=O)CCc2ccccc2)CC1` [Compound 11, 4-Methyl-N-((S)-1-oxo-1-(((S)-1-oxo-4-phenylbutan-2-yl)amino)-3-phenylpropan-2-yl)piperazine-1-carboxamide], for which, in data set [9], the “Reaction with excess phenylhydrazine (in words)” value is recorded as “completely converted to phenylhydrazone” and the “kobs of phenylhydrazone formation” value is “(2.61±0.05)×10^–4 s^–1”.

The values are drawn from publication PMC10504874 (Journal of medicinal chemistry, 2021).
